# In ChEMBL document CHEMBL1130772, “New nonsteroidal androgen receptor modulators based on 4-(trifluoromethyl)-2(1H)-pyrrolidino[3,2-g] quinolinone” (Bioorg Med Chem Lett, 1998):
# Columns and labels:
# [1] = molecular target: T1, Androgen receptor (Homo sapiens, UniProt P10275); settings: cv-1
# T1 sequence (P10275 whole entry): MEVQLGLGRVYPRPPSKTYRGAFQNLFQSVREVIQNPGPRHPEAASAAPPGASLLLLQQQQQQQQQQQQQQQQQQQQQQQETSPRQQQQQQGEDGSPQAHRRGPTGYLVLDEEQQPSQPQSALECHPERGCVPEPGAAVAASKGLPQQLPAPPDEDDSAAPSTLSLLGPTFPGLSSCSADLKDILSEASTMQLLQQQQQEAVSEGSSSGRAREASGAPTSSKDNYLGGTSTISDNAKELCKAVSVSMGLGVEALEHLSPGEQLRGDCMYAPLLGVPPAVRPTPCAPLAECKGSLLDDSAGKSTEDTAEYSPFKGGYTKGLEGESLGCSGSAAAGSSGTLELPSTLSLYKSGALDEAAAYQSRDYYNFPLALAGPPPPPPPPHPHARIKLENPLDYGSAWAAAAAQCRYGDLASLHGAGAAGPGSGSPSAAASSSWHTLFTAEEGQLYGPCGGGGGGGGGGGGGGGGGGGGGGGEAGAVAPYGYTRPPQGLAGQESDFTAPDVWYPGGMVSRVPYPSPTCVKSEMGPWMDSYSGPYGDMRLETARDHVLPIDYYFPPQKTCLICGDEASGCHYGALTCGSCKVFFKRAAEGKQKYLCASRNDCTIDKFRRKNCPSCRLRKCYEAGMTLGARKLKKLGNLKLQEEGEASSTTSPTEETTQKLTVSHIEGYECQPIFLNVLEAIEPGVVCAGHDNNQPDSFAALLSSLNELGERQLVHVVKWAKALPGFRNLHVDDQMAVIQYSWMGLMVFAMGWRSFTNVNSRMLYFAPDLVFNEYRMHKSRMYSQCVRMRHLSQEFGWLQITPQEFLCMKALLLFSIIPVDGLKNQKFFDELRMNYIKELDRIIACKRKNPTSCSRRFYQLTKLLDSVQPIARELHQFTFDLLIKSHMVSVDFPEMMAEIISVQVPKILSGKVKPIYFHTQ
# Description: Agonistic activity against human androgen receptor (hAR) in co-transfected CV-1 cell
# [2] = molecular target: T1, Androgen receptor
# [3] = molecular target: T1, Androgen receptor; assay: Binding affinity against Androgen receptor transfected into COS cells
# [4] = molecular target: T1, Androgen receptor; assay: Agonistic activity (EC50) against human androgen receptor (hAR) in co-transfected CV-1 cell; format: functional, cell-based
# [5] = molecular target: T2, Mineralocorticoid receptor (Homo sapiens, UniProt P08235); assay: (§1) Antagonistic activity against hMR in co-transfected CV-1 cell; format: functional, cell-based
# T2 sequence (P08235 whole entry): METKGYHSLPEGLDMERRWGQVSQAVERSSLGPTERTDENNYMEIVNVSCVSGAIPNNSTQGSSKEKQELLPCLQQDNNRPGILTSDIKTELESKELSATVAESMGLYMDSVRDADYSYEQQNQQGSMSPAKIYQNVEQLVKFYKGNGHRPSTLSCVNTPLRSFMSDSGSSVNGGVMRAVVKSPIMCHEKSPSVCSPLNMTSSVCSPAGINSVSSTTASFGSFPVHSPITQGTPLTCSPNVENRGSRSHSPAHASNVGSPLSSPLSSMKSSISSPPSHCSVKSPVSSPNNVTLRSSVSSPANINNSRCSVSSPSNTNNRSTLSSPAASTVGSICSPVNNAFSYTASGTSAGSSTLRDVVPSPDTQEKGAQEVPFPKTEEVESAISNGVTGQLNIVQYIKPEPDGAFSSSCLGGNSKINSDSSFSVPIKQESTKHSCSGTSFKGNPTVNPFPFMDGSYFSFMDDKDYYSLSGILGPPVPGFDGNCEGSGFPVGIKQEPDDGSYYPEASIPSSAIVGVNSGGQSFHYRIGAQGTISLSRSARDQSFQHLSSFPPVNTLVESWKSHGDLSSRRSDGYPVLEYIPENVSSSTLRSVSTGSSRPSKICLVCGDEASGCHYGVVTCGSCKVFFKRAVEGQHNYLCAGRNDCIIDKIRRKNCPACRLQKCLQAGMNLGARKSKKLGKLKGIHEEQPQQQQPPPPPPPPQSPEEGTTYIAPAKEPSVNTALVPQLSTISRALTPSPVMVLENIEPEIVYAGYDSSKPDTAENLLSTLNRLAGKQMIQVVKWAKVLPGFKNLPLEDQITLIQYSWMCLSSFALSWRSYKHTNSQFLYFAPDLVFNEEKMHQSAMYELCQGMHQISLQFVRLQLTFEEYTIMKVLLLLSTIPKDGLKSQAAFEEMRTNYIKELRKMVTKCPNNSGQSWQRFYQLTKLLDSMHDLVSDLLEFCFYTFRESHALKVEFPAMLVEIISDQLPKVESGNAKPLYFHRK
# [6] = molecular target: T3, Mineralocorticoid receptor (Homo sapiens) (UniProt P08235); assay: as §1; format: functional, cell-based
# T3 sequence (whole entry): T2 sequence (P08235 whole entry)
# [7] = molecular target: T4, Glucocorticoid receptor (Homo sapiens, UniProt P04150); assay: (§2) Antagonistic activity against Glucocorticoid receptor in co-transfected CV-1 cell; format: functional, cell-based
# T4 sequence (P04150 whole entry): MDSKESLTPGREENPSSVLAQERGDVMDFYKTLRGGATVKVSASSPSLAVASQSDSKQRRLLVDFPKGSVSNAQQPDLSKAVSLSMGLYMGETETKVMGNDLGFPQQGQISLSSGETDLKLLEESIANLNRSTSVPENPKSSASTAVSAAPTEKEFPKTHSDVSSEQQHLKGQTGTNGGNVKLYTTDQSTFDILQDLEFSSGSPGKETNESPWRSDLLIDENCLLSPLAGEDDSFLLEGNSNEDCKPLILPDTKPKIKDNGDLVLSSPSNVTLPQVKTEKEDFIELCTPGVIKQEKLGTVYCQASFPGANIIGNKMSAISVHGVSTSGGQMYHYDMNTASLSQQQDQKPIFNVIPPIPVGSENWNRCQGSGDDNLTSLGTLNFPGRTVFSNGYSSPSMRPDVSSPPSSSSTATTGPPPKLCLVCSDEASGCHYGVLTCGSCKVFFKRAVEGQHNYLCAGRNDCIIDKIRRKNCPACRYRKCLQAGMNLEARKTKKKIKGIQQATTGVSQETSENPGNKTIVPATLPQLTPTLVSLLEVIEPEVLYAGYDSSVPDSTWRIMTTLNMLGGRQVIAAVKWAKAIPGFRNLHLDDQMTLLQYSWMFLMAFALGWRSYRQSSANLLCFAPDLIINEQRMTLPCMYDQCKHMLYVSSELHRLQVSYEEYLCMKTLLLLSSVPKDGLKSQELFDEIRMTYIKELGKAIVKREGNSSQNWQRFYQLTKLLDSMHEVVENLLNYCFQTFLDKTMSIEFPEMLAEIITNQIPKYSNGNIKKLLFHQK
# [8] = molecular target: T5, Progesterone receptor (Homo sapiens, UniProt P06401); assay: (§3) Antagonistic activity against hPR in co-transfected CV-1 cell; format: functional, cell-based
# T5 sequence (P06401 whole entry): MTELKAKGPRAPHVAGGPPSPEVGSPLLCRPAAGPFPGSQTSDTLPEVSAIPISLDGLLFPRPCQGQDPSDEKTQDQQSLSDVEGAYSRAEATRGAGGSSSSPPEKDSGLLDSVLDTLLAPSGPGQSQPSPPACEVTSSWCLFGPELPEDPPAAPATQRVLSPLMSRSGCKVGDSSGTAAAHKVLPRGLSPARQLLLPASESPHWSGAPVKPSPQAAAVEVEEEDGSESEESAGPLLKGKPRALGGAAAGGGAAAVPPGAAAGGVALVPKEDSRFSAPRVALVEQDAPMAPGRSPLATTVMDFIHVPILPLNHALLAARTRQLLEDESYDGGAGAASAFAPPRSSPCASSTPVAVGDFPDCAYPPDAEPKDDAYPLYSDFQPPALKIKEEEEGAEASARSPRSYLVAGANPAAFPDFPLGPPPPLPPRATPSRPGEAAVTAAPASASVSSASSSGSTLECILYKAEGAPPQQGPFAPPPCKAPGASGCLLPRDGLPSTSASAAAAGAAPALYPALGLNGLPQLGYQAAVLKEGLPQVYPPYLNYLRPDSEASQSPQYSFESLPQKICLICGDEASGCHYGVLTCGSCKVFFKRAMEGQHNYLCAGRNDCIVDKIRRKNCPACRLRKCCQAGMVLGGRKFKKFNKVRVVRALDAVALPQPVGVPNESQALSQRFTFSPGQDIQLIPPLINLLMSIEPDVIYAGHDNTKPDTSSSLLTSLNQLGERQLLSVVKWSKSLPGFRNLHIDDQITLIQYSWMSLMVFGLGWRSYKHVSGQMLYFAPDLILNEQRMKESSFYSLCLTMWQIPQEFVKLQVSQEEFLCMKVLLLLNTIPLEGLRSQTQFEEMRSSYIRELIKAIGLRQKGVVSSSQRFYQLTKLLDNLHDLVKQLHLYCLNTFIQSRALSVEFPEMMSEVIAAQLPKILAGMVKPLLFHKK
# [9] = molecular target: T1, Androgen receptor; assay: Antagonistic activity (IC50) against human androgen receptor (hAR) in co-transfected CV-1 cell; format: functional, cell-based
# [10] = molecular target: T6, Glucocorticoid receptor (Homo sapiens) (UniProt P04150); assay: as §2; format: functional, cell-based
# T6 sequence (whole entry): T4 sequence (P04150 whole entry)
# [11] = molecular target: T7, Estrogen receptor (Homo sapiens, UniProt Q92731+P03372); assay: (§4) Antagonistic activity against Estrogen receptor in co-transfected CV-1 cell; format: functional, cell-based
# [12] = molecular target: T7, Estrogen receptor; assay: as §4; format: functional, cell-based; remark: listed apart in the source
# [13] = molecular target: T8, Progesterone receptor (Homo sapiens) (UniProt P06401); assay: as §3; format: functional, cell-based
# T8 sequence (whole entry): T5 sequence (P06401 whole entry)
SMILES,IC50 [2],Ki [3],EC50 [4],IC50 [9],also measured
CCn1c(=O)cc(C(F)(F)F)c2cc3c(cc21)N[C@@H]1CCCC[C@H]31,230 nM,194 nM,,,EC50 [1]: Not Active
C[C@H]1Nc2cc3c(cc2C1(C)C)c(C(F)(F)F)cc(=O)n3C,22 nM,9 nM,380 nM,,
Cn1c(=O)cc(C(F)(F)F)c2cc3c(cc21)N[C@@H]1CCCC[C@H]31,,4 nM,10 nM,Not Active,IC50 [5]: 2900 nM; Efficacy [6]: 58%; IC50 [7]: 3 µM; IC50 [8]: 150 nM; Efficacy [10]: 39%; IC50 [11]: > 10 µM; Efficacy [12]: < 20%; Efficacy [13]: 99%
Cn1c(=O)cc(C(F)(F)F)c2cc3c(cc21)N[C@@H]1CCCC[C@]31C,,9 nM,33 nM,Not Active,
CCCN1c2cc3c(cc2[C@H]2CCCC[C@H]21)c(C(F)(F)F)cc(=O)n3C,27 nM,63 nM,324 nM,,
C[C@]12CCCC[C@H]1Nc1cc3nc(O)cc(C(F)(F)F)c3cc12,,,,Not Active,Efficacy [6]: 43%; Efficacy [10]: 43%; IC50 [11]: > 10 µM; Efficacy [12]: < 20%; Efficacy [13]: 96%
C[C@@H]1Cc2cc3c(C(F)(F)F)cc(=O)n(C)c3cc2N1,,9 nM,20 nM,Not Active,
C[C@@H]1Cc2cc3c(C(F)(F)F)cc(O)nc3cc2N1,7 nM,10 nM,168 nM,,IC50 [5]: > 10000 nM; Efficacy [6]: < 20%; IC50 [7]: > 10 µM; IC50 [8]: 750 nM; Efficacy [10]: < 20%; IC50 [11]: > 10 µM; Efficacy [12]: < 20%; Efficacy [13]: 89%
C[C@@H]1CNc2cc3nc(O)cc(C(F)(F)F)c3cc21,,17 nM,62 nM,Not Active,
C[C@H]1CC[C@@H]2[C@H](C1)c1cc3c(C(F)(F)F)cc(=O)n(C)c3cc1N2C,54 nM,78 nM,,,EC50 [1]: Not Active
C[C@@H]1c2cc3c(C(F)(F)F)cc(=O)n(C)c3cc2N[C@@H]1C,9180 nM,10 nM,15 nM,,
C[C@]12CCCC[C@H]1Nc1cc3[nH]c(=O)cc(C(F)(F)F)c3cc12,,21 nM,25 nM,,IC50 [5]: 1900 nM; IC50 [7]: 2.1 µM; IC50 [8]: 730 nM
CN1c2cc3c(cc2[C@@]2(C)CCCC[C@@H]12)c(C(F)(F)F)cc(=O)n3C,53 nM,97 nM,,,EC50 [1]: Not Active
C[C@H]1N(C)c2cc3c(cc2C1(C)C)c(C(F)(F)F)cc(=O)n3C,56 nM,33 nM,,,EC50 [1]: Not Active
C[C@H]1Nc2cc3[nH]c(=O)cc(C(F)(F)F)c3cc2C1(C)C,48 nM,21 nM,99 nM,,
CC1(C)CNc2cc3nc(O)cc(C(F)(F)F)c3cc21,10 nM,28 nM,42 nM,,
C[C@H]1CC[C@H]2Nc3cc4nc(O)cc(C(F)(F)F)c4cc3[C@H]2C1,,23 nM,64 nM,Not Active,
